This is an account of results in patent publication US20150284381A1, “AMINO-PYRIDINE-CONTAINING SPLEEN TYROSINE KINASE (SYK) INHIBITORS” (MERCK SHARP & DOHME CORP., priority 2012, published 2015).

For the experiment, the target named is T1, recombinant human GST-Syk (Homo sapiens, UniProt P43405).
T1 construct: purchased Carna Biosciences 08-176
Briefly: Homogeneous Time-Resolved Fluorescence (HTRF) assay for the recombinant human Syk enzyme. The note with it: recombinant human GST-Syk 5 pM, ATP 25 μM, 45 min at rt, read-out: rhSyk. The experiment is classed as biochemical. As for the experimental part: Homogeneous Time-Resolved Fluorescence (HTRF) Assay for the Recombinant Human Syk Enzyme
A recombinant GST-hSyk fusion protein was used to measure potency of compounds to inhibit human Syk activity. The recombinant human GST-Syk (Carna Biosciences #08-176) (5 pM nominal concentration) was incubated with various concentrations of the inhibitor diluted in DMSO (0.1% final concentration) for 10 minutes at rt in 15 mM Tris-HCl (pH 7.5), 0.01% tween 20, 2 mM DTT in 384 well plate format. To initiate the reaction the biotinylated substrate peptide (250 nM final concentration) that contains the phosphorylation site for Syk was added with magnesium (5 mM final concentration) and ATP (25 μM final concentration). Final volume of the reaction was 10 μL. Phosphorylation of the peptide was allowed to proceed for 45′ at rt. To quench the reaction and detect the phosphorylated product, 2 nM of a Europium-anti-phosphotyrosine antibody (Perkin Elmer #AD0161) and 70 nM SA-APC (Perkin-Elmer #CR130-100) were added together in 15 mM Tris pH 7.5, 40 mM EDTA, 0.01% tween 20. Final volume of the quenching solution was 10 μL. The resulting HTRF signal was measured after 30 minutes on a EnVision (Perkin-Elmer) reader using a time-resolved fluorescence protocol. IC50 was determined following 10-dose titration (10 μM to 0.508 nM) and four parameter logistic curve fitting using an assay data analyzer.
For orientation: Time-resolved FRET reads energy transfer from a long-lived donor to a nearby acceptor.
On to `CCc1ccnc(Nc2cc(C)cc(-c3cnc([C@@]4(O)CCCc5cc(C(=O)O)ccc54)s3)n2)c1` [Example 2F, (5R)-5-(5-{6-[(4-ethylpyridin-2-yl)amino]-4-methylpyridin-2-yl}-1,3-thiazol-2-yl)-5-hydroxy-5,6,7,8-tetrahydronaphthalene-2-carboxylic acid], for which the IC50 came out at 0.2 nM.

Regarding `COc1ccnc(Nc2cc(C)cc(-c3cnc([C@@]4(O)CCc5cc(C(=O)O)ccc54)s3)n2)c1` [Example 2G, (1R)-1-hydroxy-1-(5-{6-[(4-methoxypyridin-2-yl)amino]-4-methylpyridin-2-yl}-1,3-thiazol-2-yl)-2,3-dihydro-1H-indene-5-carboxylic acid], the IC50 came out at 0.16 nM.

Regarding `CCCOc1ccnc(Nc2cc(C)cc(-c3cnc([C@@]4(O)CCc5cc(C(=O)O)ccc54)s3)n2)c1` [Example 2H, (1R)-1-hydroxy-1-(5-{4-methyl-6-[(4-propoxypyridin-2-yl)amino]pyridin-2-yl}-1,3-thiazol-2-yl)-2,3-dihydro-1H-indene-5-carboxylic acid], the IC50 worked out at 0.06 nM.

In the case of `Cc1cc(Nc2cc(C(F)F)ccn2)nc(-c2cnc([C@@]3(O)CCc4cc(C(=O)O)ccc43)s2)c1` [Example 2i, (1R)-1-[5-(6-{[4-(difluoromethyl)pyridin-2-yl]amino}-4-methylpyridin-2-yl)-1,3-thiazol-2-yl]-1-hydroxy-2,3-dihydro-1H-indene-5-carboxylic acid], the IC50 turned out to be 0.13 nM.

In the case of `Cc1cc(Nc2cc(C3CCCC(C)C3)ccn2)nc(-c2cnc([C@@]3(O)CCCc4cc(C(=O)O)ccc43)s2)c1` (stereo partly drawn) [Example 3A, (5R)-5-hydroxy-5-[5-(4-methyl-6-{[4-(3-methylcyclohexyl)pyridin-2-yl]amino}pyridin-2-yl)-1,3-thiazol-2-yl]-5,6,7,8-tetrahydronaphthalene-2-carboxylic acid], the IC50 was found to be 1.8 nM.

As for `Cc1cc(Nc2cc(C3CCC(C)CC3)ccn2)nc(-c2cnc([C@@]3(O)CCCc4cc(C(=O)O)ccc43)s2)c1` (stereo partly drawn) [Example 3B, (5R)-5-hydroxy-5-[5-(4-methyl-6-{[4-(4-methylcyclohexyl)pyridin-2-yl]amino}pyridin-2-yl)-1,3-thiazol-2-yl]-5,6,7,8-tetrahydronaphthalene-2-carboxylic acid], the IC50 is 2 nM.

Take `CCC(CC)c1ccnc(Nc2cc(C)cc(-c3cnc([C@@]4(O)CCCc5cc(C(=O)O)ccc54)s3)n2)c1` [Example 3C, (5R)-5-[5-(6-{[4-(1-ethylpropyl)pyridin-2-yl]amino}-4-methylpyridin-2-yl)-1,3-thiazol-2-yl]-5-hydroxy-5,6,7,8-tetrahydronaphthalene-2-carboxylic acid]: the IC50 stood at 0.5 nM.

Take `CCCc1ccnc(Nc2cc(C)cc(-c3cnc([C@@]4(O)CCc5cc(C(=O)O)ccc54)s3)n2)c1` [Example 3D, (1R)-1-hydroxy-1-(5-{4-methyl-6-[(4-propylpyridin-2-yl)amino]pyridin-2-yl}-1,3-thiazol-2-yl)-2,3-dihydro-1H-indene-5-carboxylic acid]: the IC50 turned out to be 0.08 nM.

For `CCCc1ccnc(Nc2cc(C)cc(-c3cnc([C@@]4(O)CCCc5cc(C(=O)O)ccc54)s3)n2)c1` [Example 3E, (5R)-5-hydroxy-5-(5-{4-methyl-6-[(4-propylpyridin-2-yl)amino]pyridin-2-yl}-1,3-thiazol-2-yl)-5,6,7,8-tetrahydronaphthalene-2-carboxylic acid], the IC50 was 0.42 nM.

On to `COC(=O)c1ccc2c(c1)CCCC2(O)c1ncc(-c2cc(C)cc(Nc3cc(-c4cn[nH]c4)ccn3)n2)s1` (stereo not shown) [Example 4A, Methyl 5-(5-(6-((4-(1H-pyrazol-4-yl)pyridin-2-yl)amino)-4-methylpyridin-2-yl)thiazol-2-yl)-5-hydroxy-5,6,7,8-tetrahydronaphthalene-2-carboxylate], for which the IC50 came out at 2.38 nM.
